Active and inactive are the calls of the source.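 How the source made its calls: active means compounds giving half or more protection of infected cells from virus-caused growth loss, again on retest; inactive means the rest.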 Where a SMILES comes first, the peptide text is derived from it. [ ]: non-standard residue; d: D form. The star is where a group is joined. Phe(4-NO2) = N[CH](Cc1ccc([N+](=O)[O-])cc1)C(=O)O; Boc = CC(C)(C)OC(=O)*; OtBu = CC(C)(C)O*
Tested on: CEM cells HIV-1 protection, formazan growth assay
Experiment: NCI AIDS Antiviral Assay
Details: for IC50: measured here: growth of uninfected CEM cells
Outline: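 Screen of anti-HIV-1 activity in human CEM cells using a formazan-based growth measurement at five drug concentrations. Hits with 50% or greater protection were repeated, and confirmation required reproducible complete protection.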

Structure (SMILES)	EC50 [µM]	IC50 [µM]	outcome
COc1cc(Cc2nnc(N)[nH]c2=O)cc(OC)c1OC	> 17.8	> 17.8	–
COC(=O)C(Cc1ccc([N+](=O)[O-])cc1)NC(=O)C(CC(=O)OC(C)(C)C)NC(=O)OC(C)(C)C (centres undefined) (Boc-Asp(OtBu)-[Phe(4-NO2)]-OMe; configuration not given here)	> 200	93.3	–
ClCCNCCNCCCl.O=c1cccccc1[O-].O=c1cccccc1[O-].[Co+3].[O-][Cl+3]([O-])([O-])[O-]	> 200	5.01	–
CCOC(=O)NC(Nc1ccc(S(=O)(=O)Nc2ncccn2)cc1)(C(=O)OCC)C(F)(F)F (centres undefined)	> 200	> 200	–
CCCCOC(=O)C(=O)C(CC(CC)C(=O)c1ccccc1)C(=O)C=C(C)C (centres undefined)	> 646	> 646	–
N#Cc1c(-c2ccc(Cl)cc2)c(C#N)c(=O)n(NS(=O)(=O)c2ccccc2)c1S	> 200	17	–
COC(=O)N/N=C(/c1nc2ccc([N+](=O)[O-])cc2[nH]c1=O)C(O)c1ccc(OC)c(OC)c1 (centres undefined)	> 110	> 110	–
CCCCCCCCCCCCCCCCP(=O)(O)OCC(N)C(=O)O (centres undefined)	> 200	95.5	–
COc1cccc(/C=N/[N-]C(N)=O)c1[O-].[OH3+].[Zn+2]	> 447	132	–
COC[C@H](Cc1ccccc1)N=Cc1ccccc1	> 200	> 200	–
CCN(CC)c1ccc2c(c1)Nc1cc(=C(C#N)C#N)c3ccccc3c1=N2	> 19.5	> 19.5	–
CCN(CC)c1c(C)nnc2c3c(-c4ccccc4)c(-c4ccccc4)nnc3nn12	> 200	> 200	–
CCCCCCCCCCCCCCCCCCOC(CO)COP(=O)(O)OCC1OC(n2cc(C)c(=O)[nH]c2=O)CC1F (centres undefined)	0.00155	2	–
S=C1SCCS1	> 200	> 200	–
CN=CN(C)c1c2ccccc2nc2ccccc12	> 200	> 200	–
CSC1=N/C(=C\c2cccs2)C(=O)N1CN1CCCCC1	> 200	> 200	–
C/C=C1/CN2CCc3c4n(c5ccccc35)[C@@H](CO)C1CC42 (some centres undefined)	> 61.7	> 61.7	–
CC1CN=C(NS(=O)(=O)c2cc(C(=O)Nc3ccccc3)c(Cl)cc2S)NN1 (centres undefined)	> 200	19.1	–
COC(=O)c1cc(NC2OCC(OC(C)=O)C(OC(C)=O)C2OC(C)=O)nc(SC)c1C(=O)OC (centres undefined)	> 200	> 200	–
Cn1ccnc1CCc1c(Cl)cccc1Cl	> 851	123	–
NS(=O)(=O)c1ccc(NC(=S)/N=C/C2=C(O)c3ccccc3C2=O)cc1	> 200	52.5	–

Structure (SMILES)	EC50 [µM]	IC50 [µM]	outcome
O=[N+]([O-])c1ccc(C2=Nn3c(nnc3-c3ccc(Cl)cc3)SC2)o1	–	–	inactive
CCOC(=O)/C=C(/N=P(c1ccccc1)(c1ccccc1)c1ccccc1)C(F)(F)F	> 200	13.8	–
N#Cc1c(N)sc(=S)c2c1CCCC2	> 22.4	> 22.4	–
CC(=O)Nc1ccc(N2C(=O)/C(=C\c3cccc(Oc4ccccc4)c3)SC2c2ccccc2)cc1 (centres undefined)	> 200	36.3	–
Cc1cc2c(C(C)C)c(O)c(O)c(C=Nc3ccc(N=Nc4ccccc4)cc3)c2c(O)c1-c1c(C)cc2c(C(C)C)c(O)c(O)c(C=Nc3ccc(N=Nc4ccccc4)cc3)c2c1O	–	–	inactive
O=C(CCc1ccc(O)cc1)NCCc1cccc(O)c1	43.7	> 100	–
Cc1ccc2nc(Nc3ccccc3C)c(Nc3ccccc3C)nc2c1	–	–	inactive
N#Cc1c(NCCc2ccc(F)cc2)c2ccccc2n2c1nc1ccccc12	11	> 200	–
CC1(Cl)CCC2(CC1Br)C(C)(C)C(Br)=CC1OC12C (centres undefined)	> 200	33.9	–
Cc1cccc(C(=O)c2cccc3ccccc23)c1C(=O)O	–	–	inactive
Cn1c(=O)cc(C=Nc2ccc(S(N)(=O)=O)cc2)c2ccccc21	> 200	1.51	–
S=c1nc2sc3c(c2c(Nc2ccccc2)[nH]1)CCCC3	> 200	> 200	–
Cc1cc(CSc2ssc(=S)c2-c2ccccc2)c(CSc2ssc(=S)c2-c2ccccc2)cc1C	> 200	> 200	–
CCOC(=O)C1=CC(C)(C(=O)OCC)Nc2c(nc(OC)[nH]c2=O)N1 (centres undefined)	> 200	> 200	–
CCCCCCCCCCCCCCCc1ncc(C)[nH]1	> 24.5	> 24.5	–
CCN(CCN(CC)C(=O)Nc1ccccc1)C(=O)Nc1ccccc1	> 200	> 200	–
CCOC(=O)N1CCN(Cc2cc(=O)n3ccc(C)cc3n2)CC1	> 200	> 200	–
CC(NC(=O)CNC(=O)C(N)CO)C(=O)NC(CCC(N)=O)C(=O)NC(CCC(=O)O)C(=O)NC(C)C(=O)NC(CCCCN)C(=O)NC(CCC(=O)O)C(=O)NC(CCC(N)=O)C(=O)NC(CCCN=C(N)N)C(=O)NC(C(=O)NC(CC(N)=O)C(=O)NC(C)C(=O)NC(Cc1cnc[nH]1)C(=O)NC(CO)C(=O)O)C(C)O (centres undefined) (H-SGAQEAKEQRTNAHS-OH; configuration not given here)	> 100	> 100	–
Cn1c(=O)c2c(ncn2CCNC(CO)C(O)c2ccc([N+](=O)[O-])cc2)n(C)c1=O (centres undefined)	> 200	> 200	–
O=C1CN(CCCN2CCOCC2)CC(=O)N2CCCCN12	> 200	> 200	–
CCCCCCCCCCCc1cc(=O)c2c(O)cccc2o1	> 14.8	> 14.8	–

Structure (SMILES)	EC50 [µM]	IC50 [µM]	outcome
COc1ccc(/C(Cl)=C(\CNc2ccccn2)c2ccccc2)cc1OC	> 200	> 200	–
N#Cc1cc2c(n(C3OC(CO)C(O)C(O)C3O)c1=S)CCCC2 (centres undefined)	> 200	> 200	–
C=C(CN(C)C)C(=O)c1ccc(C)cc1C	> 200	11.7	–
CC12C=NNC1(C)C(=O)C1(C)CN=NC1(C)C2=O (centres undefined)	> 200	> 200	–
CN1CCN(C)c2nc3ccccc3nc21	15.1	87.1	–
C1CC[N+]2(C1)CC[N+]1(CCCC1)CC2	> 200	> 200	–
CN=S(=O)(c1ccccc1)C1(C)CC(C)=C(C)CS1=O (centres undefined)	> 200	132	–
Cc1ccc(/C(C#N)=C/c2cccc([N+](=O)[O-])c2)cc1	> 200	> 200	–
N#Cc1c(OCCF)c2ccccc2n2c1nc1ccccc12	> 100	> 100	–
CC(C)CCCC(C)[C@H]1CCC(C2C[C@@H](O)[C@@H]3CC(O)[C@@H](O)C[C@]3(CO)C2=O)[C@]1(C)CCO (some centres undefined)	> 200	34.7	–
C[N+]12CCCCC1CC(=O)CC2 (centres undefined)	> 851	> 851	–
Cc1cc(C)c(S(=O)(=O)Sc2nnnn2-c2ccccc2)c(C)c1	> 20	> 20	–
COc1ccc(Cl)cc1C(=O)c1cc(Cl)cc(S(=O)(=O)N(C)C)c1OC	> 9.12	8.13	–
O=C(/C=C/c1cccs1)c1cccc(C(=O)/C=C/c2cccs2)n1	> 200	110	–
CCOC(=O)c1[nH]cc(C)c1-c1c[nH]c2ccccc12	> 200	24.5	–
CC(=O)N1C(Nc2ccccn2)CCN1c1ccccc1 (centres undefined)	> 200	38	–
C/C(=N\NC(=S)Nc1ccc(C(=O)O)cc1)c1ccccn1	> 110	18.2	–
CN(C)/C=N\c1ccnc(=O)[nH]1	> 1320	> 1320	–
Cc1nc2ccccc2c(=O)n1Nc1ccc(C(=O)O)cc1	–	–	inactive
COC1(OC)N=C(N)C2(C#N)C(C)=C3NCN(C)N=C3C12C#N (centres undefined)	> 200	> 200	–
CN1CCN(c2ccc3c(c2)NCC(=O)N3)CC1	> 200	117	–

Structure (SMILES)	EC50 [µM]	IC50 [µM]	outcome
CCn1c(=O)c2c3cc(OC(C)=O)ccc3oc2c2ccc(OC(C)=O)cc21	> 200	53.7	–
N#CC(Nc1ccccc1)c1ccc(C(C#N)Nc2ccccc2)cc1 (centres undefined)	> 200	9.55	–
CS/C(=C\c1ccc(C(=O)c2ccc(C)cc2)n1C)S(C)=O (centres undefined)	> 200	12.3	–
O=C1OCc2nc3c(c(-c4ccccc4C(F)(F)F)c21)C(=O)OC3	–	–	inactive
COc1ccccc1C1C(C(=O)Nc2ccccc2)=C(C)NC(C)=C1C(=O)Nc1ccccc1	> 21.9	> 21.9	–
COC(=O)/C=C(C)/C=C/C1OC(C)OCC1O (centres undefined)	> 1020	> 1020	–
CN(C)CCN1C(=O)c2cccc3cc([N+](=O)[O-])cc(c23)C1=O	> 200	0.0912	–
COc1cc(NS(=O)(=O)c2ccc(C)cc2)c2nccnc2c1	> 204	77.6	–
Cc1cc(Cl)cc(S)c1S(=O)(=O)Nc1nnc2ccc3ccccc3n12	> 200	93.3	–
CC(C)c1ccc(C2C3=C(N=C4SCC(=O)N42)C(=O)c2ccccc23)cc1 (centres undefined)	> 13.8	> 13.8	–
CC1=NC(C)(C)CC2CCC(O)C12 (centres undefined)	> 200	> 200	–
O=S(=O)(O)c1ccc2c(N=Nc3ccc(S(=O)(=O)O)c4ccccc34)c(O)c(S(=O)(=O)O)cc2c1	> 100	> 100	inactive
COC(=O)C12C3C4C1C1C2C3C41C(=O)O (centres undefined)	> 1200	> 1200	–
COc1cc2c(cc1OC)C1Cc3ccccc3CCN1CC2 (centres undefined)	> 200	126	–
Nc1nc(N)c(CCCCc2ccc([N+](=O)[O-])cc2)c(N)n1	–	–	inactive
COC(=N)CCNC(=O)C(O)C(O)C(=O)NCCC(=N)OC (centres undefined)	> 646	> 646	–
Cc1cc(Cc2cc(C)c(NC(=O)C(=O)C3CCC4=C(SC5C=CC=CC5N4)C3=O)c(C(C)C)c2)cc(C(C)C)c1NC(=O)C(=O)C1CCC2=C(SC3C=CC=CC3N2)C1=O (centres undefined)	> 41.7	12	–
Cc1c(CCCl)c(N=P(c2ccccc2)(c2ccccc2)c2ccccc2)n2c(nc3ccccc32)c1C#N	> 200	> 200	–
c1ccc(-c2[o+]c(-c3ccccc3)c(-c3ccccc3)c(-c3ccccc3)c2-c2ccccc2)cc1	–	–	inactive
COC(=O)[C@H](Cc1cn(C(c2ccccc2)(c2ccccc2)c2ccccc2)cn1)NCc1cc(N(C)C)cc(CN[C@@H](Cc2cn(C(c3ccccc3)(c3ccccc3)c3ccccc3)cn2)C(=O)OC)n1	> 100	5.89	–

Source: PubChem BioAssay AID179 (DTP/NCI, 2004)
